Reference: patent US7186519B2 (priority 2002, dated 2007)
Entries after “also recorded” stand apart in the source; their conditions may differ.

How the values were obtained:
CT43 cells = assay type: cell-based, Chinese hamster
[1] = system: CT43 cells expressing NPC1-GFP; test: Fluorescence microscopy of BCθ binding in NPC1-GFP transfected cells; conditions: CT43 cells expressing NPC1-GFP exposed to U18666A
Procedure: To examine the effect of NPC1 expression on intracellular BCθ binding to cholesterol in CT43 cells, a construct comprising a GFP-tagged NPC1 protein (NPC1-GFP) was prepared and introduced into CT43 cells by transient transfection. […] After BCθ binding, cells containing NPC1-GFP were viewed in the red channel to detect the BCθ fluorescence signal or in the green channel to detect the NPC1-GFP fluorescence signal. The two fluorescence signals were then merged to examine their degree of overlap.
2-hydroxypropyl-β-cyclodextrin (SIGMA™-Aldrich, St. Louis, Mo.) was added to culture medium using well-known methods (Rothblat, et al. (1999) supra). U18666A was provided to the cells using standard conditions (Lange, et al. (2000) supra; Liscum and Faust (1989) supra).
Transient transfection of NPC1-GFP was performed in CT43 cells using FUGENE™ 6 according to manufacturer's instructions (Roche, Indianapolis, Ind.). Transfected cells were imaged within 2–3 days of transfection.
Cells were grown on glass coverslips in six-well plates and processed for fluorescence studies. […]

25RA cells = assay type: cell-based, Chinese hamster

## 2-hydroxypropyl-b-cyclodextrin [hpCD]
CT43 cells
  Effect on BCθ fluorescence signal (intracellular cholesterol): both cell lines retained most of the BCθ fluorescence signals; also recorded: retained much of the signal

## CCN(CC)CCO[C@H]1CC[C@@]2(C)C(=CC[C@@H]3[C@@H]2CC[C@]2(C)C(=O)CC[C@@H]32)C1 [U18666A]
[1]
  Effect on binding of BCθ to intracellular cholesterol: binding of BCθ to intracellular cholesterol persisted

## CCCCC[C@@H](O)[C@H]1C(=O)O[C@H](C)[C@@H](O)/C=C/C=C/C=C/C=C/C=C(\C)[C@@H](O)C[C@H](O)C[C@H](O)C[C@H](O)C[C@H](O)C[C@H](O)C[C@@H]1O [filipin]
25RA cells
  Binding to intracellular cholesterol: not in 25RA cells
CT43 cells
  Binding to intracellular cholesterol: able to bind intracellular cholesterol in CT43 cells
